Measurements: patent US20130184272A1, “DIABETES THERAPEUTIC AGENT” (TAKEDA PHARMACEUTICAL COMPANY LIMITED, priority 2010, published 2013)

How the values were obtained:
[1] = tested on: Mouse-derived myoblast line C2C12 cell; test: Cell differentiation promoting activity in myoblast (creatine kinase activity); assay type: cell-based; conditions: 2 days, without compound = 100%; for activity at 1 µM / activity at 0.01 µM / activity at 10 µM: Mus musculus, C2C12, 48 h, read-out: creatine kinase activating action (%); for activity at 0.01 µM: compound at 0.01 μM (**); for activity at 10 µM: compound at 10 μM (*)
Method: • (1) Mouse-derived myoblast line C2C12 cell (Dainippon Pharmaceutical Co., Ltd.) was subcultured in a high glucose Eagle's modified Dulbecco's medium (GIBCO) added with 10% calf fetal bovine serum (GIBCO), 100 unit/mL penicillin and 100 μg/mL streptomycin (hereinafter to be referred to as a growth medium), plated at 5000 cells/cm^2 and cultured at 37° C., under 5% CO2. • (2) When the cells reached subconfluence of not less than 90%, the medium was exchanged with high glucose Eagle's modified Dulbecco's medium (GIBCO) added with (i) 2% horse serum (GIBCO) and (ii) penicillin, streptomycin and a test compound (hereinafter to be referred to as a differentiation medium) and the cells were cultured for 2 days. To the control group was added DMSO solution instead of the test compound. • (3) The cells were washed with PBS, 0.5% NP-40 solution was added, and the cells were lysed by freeze-thawing. The cell extract was centrifuged and the creatine kinase activity in the supernatant was measured as an index of muscle differentiation. The creatine kinase activity was measured using CPKII Test Wako (Wako Pure Chemical Industries, Ltd.) according to the manual of the kit.
The numerical values in Table 1 show creatine kinase activity of the compound addition group when the creatine kinase activity without addition of the compound is 100%, and * means measurement with addition of the compound at 10 μM, ** at 0.01 μM, and others at 1 μM.

C2C12 cell = test: Sugar metabolism promoting activity in muscle cell (lactic acid production); assay type: cell-based, Mouse; conditions: compound 1 μM, 2 days, C2C12 myotubes, without drug = 100%; for activity at 1 µM: Mus musculus, 48 h, read-out: lactic acid production promoting action (%)
Method: • (1) In the same manner as in Example 1, C2C12 cell was cultured in a growth medium. After reaching subconfluence of not less than 90%, the medium was exchanged with a differentiation medium and the cells were cultured for about 7 days while exchanging the medium every 2 or 3 days until the cells differentiated to form a myotube. • (2) After confirmation of myotube formation under a microscope, the test compound (1 μM) was added to a differentiation medium and cultured for 2 days. The cells were washed with Krebs-Ringer HEPES phosphate buffer (10 mM HEPES, pH 7.4, 131 mM NaCl, 4.7 mM KCl, 2.5 mM CaCl2—2H2O, 1.2 mM MgSO4—7H2O, 1.2 mM KH2PO4), the medium was exchanged with Krebs-Ringer HEPES phosphate buffer added with 5 mM glucose, 0.2% fatty acid-free bovine serum albumin, and cultured at 37° C. for 4 hr. • (3) The lactic acid concentration of the culture supernatant was measured using Detarminer LA kit (Kyowa Medex Co., Ltd.).
The numerical values in Table 2 show the concentration of the compound addition group with the concentration of lactic acid without addition of a drug as 100%.

Row | Compound | activity at 1 µM ([1]; compound at 1 μM) [%] | activity at 1 µM (C2C12 cell) [%] | activity at 0.01 µM [1] [%] | other results
1 | CCCOc1sc(C(N)=O)c2c1-c1c(cnn1C)CC2 [Ref. Ex. 3, 1-methyl-8-propoxy-4,5-dihydro-1H-thieno[3,4-g]indazole-6-carboxamide] | 179 | 170 | – | –
2 | COCCOc1sc(C(N)=O)c2c1-c1c(cnn1C)CC2 [Ref. Ex. 4, 8-(2-methoxyethoxy)-1-methyl-4,5-dihydro-1H-thieno[3,4-g]indazole-6-carboxamide] | 138 | 239 | – | –
3 | Cn1ncc2c1-c1c(OCc3ccncc3)sc(C(N)=O)c1CC2 [Ref. Ex. 5, 1-methyl-8-(pyridin-4-ylmethoxy)-4,5-dihydro-1H-thieno[3,4-g]indazole-6-carboxamide] | 113 | 124 | – | –
4 | CNC(=O)c1sc(Oc2ccccc2)c2c1CCc1cnn(C)c1-2 [Ref. Ex. 6, N,1-dimethyl-8-phenoxy-4,5-dihydro-1H-thieno[3,4-g]indazole-6-carboxamide] | 164 | 187 | – | –
5 | Cn1ncc2c1-c1c(Oc3ccc(OCc4ccc5ccccc5n4)cc3)sc(C(N)=O)c1CC2 [Ref. Ex. 10, 1-methyl-8-[4-(quinolin-2-ylmethoxy)phenoxy]-4,5-dihydro-1H-thieno[3,4-g]indazole-6-carboxamide] | – | 259 | 193 | –
6 | CCCSc1sc(C(N)=O)c2c1-c1c(cnn1C)CC2 [Ref. Ex. 11, 1-methyl-8-(propylsulfanyl)-4,5-dihydro-1H-thieno[3,4-g]indazole-6-carboxamide] | 198 | 239 | – | –
7 | Cn1ncc2c1-c1c(Nc3ccccc3)sc(C(N)=O)c1CC2 [Ref. Ex. 12, 1-methyl-8-(phenylamino)-4,5-dihydro-1H-thieno[3,4-g]indazole-6-carboxamide] | – | – | – | activity at 10 µM [1]: 162%
8 | CCCS(=O)(=O)c1sc(C(N)=O)c2c1-c1c(cnn1C)CC2 [Ref. Ex. 13, 1-methyl-8-(propylsulfonyl)-4,5-dihydro-1H-thieno[3,4-g]indazole-6-carboxamide] | – | 154 | – | activity at 10 µM [1]: 128%
9 | CCCCc1sc(C(N)=O)c2c1-c1c(cnn1C)CC2 [Ref. Ex. 14, 8-butyl-1-methyl-4,5-dihydro-1H-thieno[3,4-g]indazole-6-carboxamide] | 151 | 265 | – | –
10 | Cn1ncc2c1-c1c(Cc3ccccc3)sc(C(N)=O)c1CC2 [Ref. Ex. 16, 8-benzyl-1-methyl-4,5-dihydro-1H-thieno[3,4-g]indazole-6-carboxamide] | – | 194 | 150 | –
11 | Cn1ncc2c1-c1c(OC3CCCC3)sc(C(N)=O)c1CC2 [Ref. Ex. 17, 8-(cyclopentyloxy)-1-methyl-4,5-dihydro-1H-thieno[3,4-g]indazole-6-carboxamide] | 177 | 141 | – | –
12 | Cn1ncc2c1-c1c(Oc3ccc4ncccc4c3)sc(C(N)=O)c1CC2 [Ref. Ex. 18, 1-methyl-8-(quinolin-6-yloxy)-4,5-dihydro-1H-thieno[3,4-g]indazole-6-carboxamide] | – | 220 | 160 | –
13 | Cn1ncc2c1-c1c(Oc3ccc(S(C)(=O)=O)cc3)sc(C(N)=O)c1CC2 [Ref. Ex. 19, 1-methyl-8-[4-(methylsulfonyl)phenoxy]-4,5-dihydro-1H-thieno[3,4-g]indazole-6-carboxamide] | 183 | 209 | – | –
14 | NC(=O)c1sc(Oc2ccccc2)c2c1CCc1cn[nH]c1-2 [Ref. Ex. 20, 8-phenoxy-4,5-dihydro-1H-thieno[3,4-g]indazole-6-carboxamide] | 121 | 167 | – | –
15 | COc1cccc(Oc2sc(C(N)=O)c3c2-c2c(cnn2C)CC3)c1 [Ref. Ex. 21, 8-(3-methoxyphenoxy)-1-methyl-4,5-dihydro-1H-thieno[3,4-g]indazole-6-carboxamide] | – | 184 | 198 | –
16 | Cn1ncc2c1-c1c(Oc3ccc(OCc4ccncc4)cc3)sc(C(N)=O)c1CC2 [Ref. Ex. 23, 1-methyl-8-[4-(pyridin-4-ylmethoxy)phenoxy]-4,5-dihydro-1H-thieno[3,4-g]indazole-6-carboxamide] | – | 252 | 191 | –
17 | Cn1ncc2c1-c1c(Oc3ccc(CC(=O)O)cc3)sc(C(N)=O)c1CC2 [Ref. Ex. 24, {4-[(6-carbamoyl-1-methyl-4,5-dihydro-1H-thieno[3,4-g]indazol-8-yl)oxy]phenyl}acetic acid] | 142 | 126 | – | –
18 | Cn1ncc2c1-c1c(Oc3ccc(C[C@H](N)C(=O)N4CCOCC4)cc3)sc(C(N)=O)c1CC2 [Ref. Ex. 25, 8-{4-[(2S)-2-amino-3-morpholin-4-yl-3-oxopropyl]phenoxy}-1-methyl-4,5-dihydro-1H-thieno[3,4-g]indazole-6-carboxamide] | 180 | 235 | – | –
19 | CN(C)c1cccc(Oc2sc(C(N)=O)c3c2-c2c(cnn2C)CC3)c1 [Ref. Ex. 26, 8-[3-(dimethylamino)phenoxy]-1-methyl-4,5-dihydro-1H-thieno[3,4-g]indazole-6-carboxamide] | 156 | 175 | – | –
20 | Cn1ncc2c1-c1c(Oc3ccc(OCc4ccccn4)cc3)sc(C(N)=O)c1CC2 [Ref. Ex. 27, 1-methyl-8-[4-(pyridin-2-ylmethoxy)phenoxy]-4,5-dihydro-1H-thieno[3,4-g]indazole-6-carboxamide] | – | 198 | 163 | –
21 | Cn1ncc2c1-c1c(Oc3ccc4c(c3)OCO4)sc(C(=O)NCc3ccncc3)c1CC2 [Ref. Ex. 28, 8-(1,3-benzodioxol-5-yloxy)-1-methyl-N-(pyridin-4-ylmethyl)-4,5-dihydro-1H-thieno[3,4-g]indazole-6-carboxamide] | 186 | 170 | – | –
22 | Cn1ncc2c1-c1c(Oc3ccc4c(c3)OCO4)sc(C(N)=O)c1CC2(C)C [Ref. Ex. 29, 8-(1,3-benzodioxol-5-yloxy)-1,4,4-trimethyl-4,5-dihydro-1H-thieno[3,4-g]indazole-6-carboxamide] | 183 | 264 | – | –
23 | Cn1ncc2c1-c1c(Oc3cnc4ccccc4c3)sc(C(N)=O)c1CC2 [Ref. Ex. 30, 1-methyl-8-(quinolin-3-yloxy)-4,5-dihydro-1H-thieno[3,4-g]indazole-6-carboxamide] | – | 260 | 166 | –
24 | Cc1ccc(Oc2sc(C(N)=O)c3c2-c2c(cnn2C)CC3)cn1 [Ref. Ex. 31, 1-methyl-8-[(6-methylpyridin-3-yl)oxy]-4,5-dihydro-1H-thieno[3,4-g]indazole-6-carboxamide] | – | 253 | 150 | –
25 | Cn1ncc2c1-c1c(Oc3cccnc3N)sc(C(N)=O)c1CC2 [Ref. Ex. 32, 8-[(2-aminopyridin-3-yl)oxy]-1-methyl-4,5-dihydro-1H-thieno[3,4-g]indazole-6-carboxamide] | 101 | 295 | – | –
26 | Cn1ncc2c1-c1c(Oc3ccc[n+]([O-])c3)sc(C(N)=O)c1CC2 [Ref. Ex. 33, 1-methyl-8-[(1-oxidepyridin-3-yl)oxy]-4,5-dihydro-1H-thieno[3,4-g]indazole-6-carboxamide] | – | – | – | creatine kinase activating action (%) ([1]; compound at 1 μM): 156%; lactic acid production promoting action (%) (C2C12 cell): 155%
27 | COc1ncccc1Oc1sc(C(N)=O)c2c1-c1c(cnn1C)CC2 [Ref. Ex. 34, 8-[(2-methoxypyridin-3-yl)oxy]-1-methyl-4,5-dihydro-1H-thieno[3,4-g]indazole-6-carboxamide] | 164 | 249 | – | –
28 | COc1ccc(Oc2sc(C(N)=O)c3c2-c2c(cnn2C)CC3)cn1 [Ref. Ex. 35, 8-[(6-methoxypyridin-3-yl)oxy]-1-methyl-4,5-dihydro-1H-thieno[3,4-g]indazole-6-carboxamide] | – | 228 | 192 | –
29 | CN(C)c1sc(C(N)=O)c2c1-c1c(cnn1C)CC2 [Ref. Ex. 36, 8-(dimethylamino)-1-methyl-4,5-dihydro-1H-thieno[3,4-g]indazole-6-carboxamide] | 139 | 211 | – | –
